Results: ChEMBL document CHEMBL1129640, “Assessment of structural requirements for the monoamine oxidase-B-catalyzed oxidation of 1,4-disubstituted-1,2,3,6-tetrahydropyridine derivatives related to the neurotoxin 1-methyl-4-phenyl-1,2,3,6-tetrahydropyridine” (J Med Chem, 1996)

Experiments:
[1] = biological target: T1, Amine oxidase [flavin-containing] B (Bos taurus, UniProt P56560); assay: Ratio of Kcat and KM against monoamine oxidase B (MAO-B) from beef liver was calculated; details: cattle
T1 sequence (P56560 whole entry): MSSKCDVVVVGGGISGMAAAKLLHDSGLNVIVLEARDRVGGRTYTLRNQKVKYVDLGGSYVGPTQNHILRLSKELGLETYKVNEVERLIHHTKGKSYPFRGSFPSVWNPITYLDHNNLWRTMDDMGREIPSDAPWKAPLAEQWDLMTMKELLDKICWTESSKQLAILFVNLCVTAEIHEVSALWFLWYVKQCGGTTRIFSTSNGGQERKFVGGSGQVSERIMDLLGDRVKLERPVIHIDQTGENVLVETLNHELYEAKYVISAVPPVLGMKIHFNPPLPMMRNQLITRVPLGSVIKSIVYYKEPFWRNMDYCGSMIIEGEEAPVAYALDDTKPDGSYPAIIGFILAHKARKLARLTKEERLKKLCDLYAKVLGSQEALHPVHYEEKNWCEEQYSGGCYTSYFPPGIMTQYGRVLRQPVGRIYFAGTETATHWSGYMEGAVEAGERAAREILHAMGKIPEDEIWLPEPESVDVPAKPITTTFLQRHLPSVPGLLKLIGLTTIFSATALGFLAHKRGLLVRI

[2] = biological target: T1, Amine oxidase [flavin-containing] B; assay: Catalytic constant was measured against monoamine oxidase B (MAO-B) from beef liver; details: cattle

Row | Structure (SMILES) | Ratio [1] | k cat [2]
1 | Clc1ccc(C2=CCNCC2)cc1 | 382 | –
2 | C1=C(Oc2cccs2)CC[N+](C2CC2)=C1 | 1900 | –
3 | Cn1cccc1C1=CC=[N+](C2CC2)CC1 | 413 | –
4 | CN1CC=C(OC(=O)N(C)C)CC1 | 57 | –
5 | C#CC1=CCN(C)CC1 | 790 | –
6 | C1=C(Oc2ccccc2)CC[N+](C2CC2)=C1 | 1650 | –
7 | CCOC(=O)C1=CCN(C)CC1 | 433 | –
8 | C1=C(Cc2ccccc2)CC[N+](C2CC2)=C1 | 1538 | –
9 | CN1CC=C(CCc2ccccc2)CC1 | 1130 | –
10 | C[C@@H]1NC(=O)[C@H](NC(=O)[C@@H](N)Cc2ccc(O)cc2)C(C)(C)SSC(C)(C)[C@@H](C(O)O)NC(=O)[C@H](Cc2ccccc2)NC1=O | 19 | –
11 | CN1CC=C(c2cccs2)CC1 | 55 | –
12 | CN1CC=C(c2ccccc2)CC1 | – | 3.4 s⁻¹
13 | CCCN1CC=C(c2ccccc2)CC1 | 4 | –
14 | CN1CC=C(C(C)(C)C)CC1 | 92 | –
15 | Cc1ccccc1C1=CC=[N+](C2CC2)CC1 | 630 | –
16 | Clc1ccc(OC2=CC=[N+](C3CC3)CC2)cc1 | 136 | –
17 | CN1CC=C(c2ccc([N+](=O)[O-])cc2)CC1 | 16 | –
18 | CN1CC=C(c2ccc(N)cc2)CC1 | 54 | –
19 | CN1CC=C(Cn2cccc2)CC1 | 347 | –
20 | CN1CC=C(/C=C\c2ccccc2)CC1 | 912 | –
21 | CN1CC=C(OC(=O)N(C)c2ccccc2)CC1 | 67 | –
22 | CN1CC=C(C2CC2)CC1 | 974 | –
23 | C=CC1=CCN(C)CC1 | 2370 | –
24 | CN1CC=C(Cc2ccccc2)CC1 | 3580 | –
25 | CN1CC=C(Oc2ccccc2)CC1 | 4151 | –
26 | O=C([O-])C(=O)O.O=[N+]([O-])c1ccc(OC2=CC=[N+](C3CC3)CC2)cc1 | 150 | –
27 | C1=C(c2ccccc2)CCNC1 | 319 | –
28 | CN1CC=C(C2CCCCC2)CC1 | 688 | –
